Patent publication US7371737B2, “2-substituted-6-trifluoromethyl purine derivatives with adenosine-A3 antagonistic activity” (Solvay Pharmaceuticals, B.V., priority 2004, dated 2008)

Legend:
[1] = target: T1, human Adenosine A3 receptor (Homo sapiens, UniProt P0DMS8); assay: In vitro functional activity on human adenosine A3 receptors using an Aequorin-based assay; type: cell-based; parameters: A. et al. (Acc. Number GenBank: L22607); host or cells: CHO-K1 cells stably expressing mitochondrially targeted aequorin and Galpha16; details: hA3-Aequorin CHO-K1 cells; for EC50: agonist mode, concentrations up to 10^−5 M, read-out: Functional activity A3 agonism pEC50 (converted); for Kb: read-out: Functional activity A3 antagonism pA2 (converted)
T1 sequence (P0DMS8 1-318): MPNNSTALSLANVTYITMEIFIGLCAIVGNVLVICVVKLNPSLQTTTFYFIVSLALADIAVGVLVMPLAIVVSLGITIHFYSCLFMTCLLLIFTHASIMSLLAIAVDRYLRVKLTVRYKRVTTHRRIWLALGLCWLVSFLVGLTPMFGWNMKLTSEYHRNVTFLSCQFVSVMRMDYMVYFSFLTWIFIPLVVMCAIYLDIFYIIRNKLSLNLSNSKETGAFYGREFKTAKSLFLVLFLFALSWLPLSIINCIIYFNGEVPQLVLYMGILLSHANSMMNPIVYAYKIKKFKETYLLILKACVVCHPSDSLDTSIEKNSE
Text: A stable monoclonal hA3-Aequorin cell line was provided by Euroscreen. The coding region encoding the human Adenosine A3 receptor was amplified by polymerase chain reaction (PCR), using human lung cDNA as template. The PCR product was ligated in the expression vector pEFIN3 (Invitrogen), and the complete sequence of the insert was then established. […] A. et al. (Acc. Number GenBank: L22607). The expression plasmid containing the coding sequence of the human Adenosine A3 receptor was transfected in CHO-K1 cells stably expressing mitochondrially targetted Aequorin and Gα16. Resistant clones were selected in the presence of 400 μg/ml G418 and isolated by limiting dilution. […] The hA3-Aequorin cells express mitochondrially targetted apo-Aequorin. Cells have to be loaded with coelenterazine, in order to reconstitute active Aequorin. After binding of agonists to the hA3 receptor, the intracellular calcium concentration increases, which leads to a luminescent response. Binding of calcium to the apo-Aequorin/coelenterazine complex leads to an oxidation reaction of coelenterazine, which results in the production of apo-Aequorin, coelenteramide, CO2 and light (λmax 469 nm). This luminescent response is dependent on the agonist concentration.
Assay-protocol: • Dilute the loaded cells 18× in Dulbecco's medium without PhenolRed (Gibco BRL), pre-heated to 37° C., resulting in a concentration of 2.8*10^5 cells/ml. • Stir for 1 hour at room temperature. • Add 10 μl compound or control per well in white 96-well plates. • Add 90 μl of diluted cells (2.5*10^4 cells/well). • Measure chemoluminescence immediately for 20 seconds. • In antagonist mode 50 μl 10^−6 N6-benzyl-NECA is added as the agonist. • Measure chemoluminescence immediately for 20 seconds using the MicroBetaJet (PerkinElmer).

[2] = target: T2, human adenosine-A1 receptors (Homo sapiens, UniProt P30542); assay: In vitro affinity for human adenosine-A1 receptors (radioligand [3H]DPCPX); type: binding; details: human recombinant receptors expressed in CHO cells; for Ki: read-out: Adenosine receptor affinity (binding) A1 pKi (converted)
T2 construct: expressed in transfected cells; host or cells: CHO cells
T2 sequence (P30542 1-326): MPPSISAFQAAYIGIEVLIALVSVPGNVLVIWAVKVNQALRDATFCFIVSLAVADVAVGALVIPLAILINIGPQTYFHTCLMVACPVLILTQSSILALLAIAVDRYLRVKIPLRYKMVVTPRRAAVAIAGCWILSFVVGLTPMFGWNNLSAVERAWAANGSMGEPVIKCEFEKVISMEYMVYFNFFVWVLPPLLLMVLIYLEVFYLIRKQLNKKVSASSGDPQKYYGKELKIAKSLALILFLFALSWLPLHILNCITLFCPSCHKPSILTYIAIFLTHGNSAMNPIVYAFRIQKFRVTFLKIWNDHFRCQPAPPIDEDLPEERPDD
Procedure: Affinity of the compounds for human adenosine-A1 receptors was determined using the receptor binding assay described by A. Townsend-Nicholson and P. R. Schofield (Biol. Chem., 269, 2373, 1994), using human recombinant receptors expressed in CHO cells, and [^3H]DPCPX as radioligand.

[3] = target: T1, human Adenosine A3 receptor; assay: In vitro affinity for human adenosine-A3 receptors (radioligand [125I]-AB-MECA); type: binding; parameters: expressed in transfected cells; host or cells: HEK 293 cells (membrane preparations); details: membranes of HEK 293 cells stably expressing human A3, [125I]-AB-MECA, 22° C., 90 minutes; read-out: Adenosine receptor affinity (binding) A3 pKi (converted)
Procedure: Affinity of the compounds for human adenosine-A3 receptors was determined using the receptor binding assay described by C. A. Salvatore et al.: “Molecular cloning and characterization of the human A3 adenosine receptor”, Proc. Natl. Acad. Sci. USA, 90, 10365-10369, 1993. Briefly, membrane preparations were obtained from human recombinant (HEK 293) cells in which the human adenosine-A3 receptor was stably expressed. […] Separation of bound radioactivity from free was done by filtration through Packard GF/B glass fiber filters with several washings with ice-cold buffer using a Packard cell harvester. Bound radioactivity was measured with a scintillation counter (Topcount, Packard) using a liquid scintillation cocktail (Microscint 0, Packard). […] Determination of In Vitro Functional Activity on Human Adenosine A3 Receptors Using an Aequorin-based Assay

[4] = target: T3, human adenosine-A2A receptors (Homo sapiens, UniProt P29274); assay: In vitro affinity for human adenosine-A2A receptors (radioligand [3H]CGS 21680); type: binding; details: human recombinant receptors expressed in HEK-293 cells; for Ki: read-out: Adenosine receptor affinity (binding) A2A pKi (converted)
T3 construct: expressed in transfected cells; host or cells: HEK-293 cells
Procedure: Affinity of the compounds for human adenosine-A2A receptors was determined using the receptor binding assay described by D. R. Luthin et al., (Mol. Pharmacol., 47, 307, 1995), using human recombinant receptors expressed in HEK-293 cells, and [^3H]CGS 21680 as radioligand.

[5] = target: T4, human adenosine-A2B receptors (Homo sapiens, UniProt P29275); assay: In vitro affinity for human adenosine-A2B receptors (radioligand [3H]MRS 1754); type: binding; details: human recombinant receptors expressed in HEK-293 cells; for Ki: read-out: Adenosine receptor affinity (binding) A2B pKi (converted)
T4 construct: expressed in transfected cells; host or cells: HEK-293 cells
T4 sequence (P29275 1-332): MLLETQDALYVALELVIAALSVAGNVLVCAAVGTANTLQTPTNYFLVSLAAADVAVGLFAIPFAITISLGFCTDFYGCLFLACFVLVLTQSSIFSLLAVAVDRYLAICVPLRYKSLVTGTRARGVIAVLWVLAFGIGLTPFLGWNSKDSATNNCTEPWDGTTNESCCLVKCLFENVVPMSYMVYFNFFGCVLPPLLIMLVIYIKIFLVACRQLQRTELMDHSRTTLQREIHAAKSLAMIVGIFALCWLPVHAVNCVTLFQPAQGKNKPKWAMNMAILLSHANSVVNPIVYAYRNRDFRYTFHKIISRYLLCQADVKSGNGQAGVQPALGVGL
Procedure: Affinity of the compounds for human adenosine-A2B receptors was determined using the receptor binding assay described by J. H. Stehle et al. (Mol. Endocrinol., 6, 384, 1992), using human recombinant receptors expressed in HEK-293 cells, and [^3H]MRS 1754 as radioligand.

[6] = antagonist mode, N6-benzyl-NECA as the agonist

T3 sequence (P29274 whole entry): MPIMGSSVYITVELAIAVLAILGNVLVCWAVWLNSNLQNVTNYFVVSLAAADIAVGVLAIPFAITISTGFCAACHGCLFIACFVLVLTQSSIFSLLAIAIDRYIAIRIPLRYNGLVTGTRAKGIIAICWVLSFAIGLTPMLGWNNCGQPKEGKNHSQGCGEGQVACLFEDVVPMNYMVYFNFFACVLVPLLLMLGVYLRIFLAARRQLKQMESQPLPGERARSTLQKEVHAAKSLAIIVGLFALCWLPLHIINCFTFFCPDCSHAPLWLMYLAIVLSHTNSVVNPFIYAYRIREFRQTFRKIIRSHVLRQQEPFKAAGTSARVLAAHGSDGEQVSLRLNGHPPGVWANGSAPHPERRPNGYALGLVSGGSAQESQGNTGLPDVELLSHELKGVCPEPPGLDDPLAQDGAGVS

| SMILES | EC50 [1] [µM] | Kb [1, 6] [nM] | Ki [2] [µM] | Ki [3] [nM] | Ki [4] [µM] | Ki [5] [µM] | melting point [°C] | Functional activity A3 antagonism pA2 [1, 6] | Adenosine receptor affinity (binding) A1 pKi [2] | Adenosine receptor affinity (binding) A2A pKi [4] | Adenosine receptor affinity (binding) A2B pKi [5] |
| --- | --- | --- | --- | --- | --- | --- | --- | --- | --- | --- | --- |
| FC(F)(F)c1nc(NCc2ccccc2)nc2nc[nH]c12 [Compound 6, 6-trifluoromethyl-2-benzylamino purine] | > 10 | 158 | 3.98 | 20 | 20 | > 10 |  |  |  |  |  |
| Cn1cnc2c(C(F)(F)F)nc(NCc3ccccc3)nc21 [Compound 7, 6-trifluoromethyl-9-methyl-2-benzylamino purine] | > 10 | 1580 | > 10 | 3160 | > 10 | > 10 |  |  |  |  |  |
| OC[C@H]1O[C@@H](n2cnc3c(C(F)(F)F)nc(NCc4ccccc4)nc32)[C@H](O)[C@@H]1O [Compound 8, 2-benzylamino-6-trifluoromethyl-9-β-D-ribofuranosyl purine] |  | 39.8 | 7.94 | 316 | 12.6 | > 10 |  |  |  |  |  |
| FC(F)(F)c1nc(NCCc2ccccc2)nc2nc[nH]c12 [Compound 9, 6-trifluoromethyl-2-phenethylamino purine] | > 10 | 2 | 1 | 12.6 | 12.6 | > 10 |  |  |  |  |  |
| Cn1cnc2c(C(F)(F)F)nc(NCCc3ccccc3)nc21 [Compound 10, 6-trifluoromethyl-9-methyl-2-phenethylamino purine] | > 10 | 3160 | 6.31 | 1580 | 15.8 | 12.6 |  |  |  |  |  |

The next lines start with the values.

| EC50 [1] [µM] | Kb [1, 6] [nM] | Ki [2] [µM] | Ki [3] [nM] | Ki [4] [µM] | Ki [5] [µM] | melting point [°C] | Functional activity A3 antagonism pA2 [1, 6] | Adenosine receptor affinity (binding) A1 pKi [2] | Adenosine receptor affinity (binding) A2A pKi [4] | Adenosine receptor affinity (binding) A2B pKi [5] | SMILES |
| --- | --- | --- | --- | --- | --- | --- | --- | --- | --- | --- | --- |
|  |  | > 10 | 1000 | > 10 |  | 131 to 139 |  |  |  |  | Cn1c(Br)nc2c(C(F)(F)F)nc(NCCc3ccccc3)nc21 [Compound 11, 8-bromo-6-trifluoromethyl-9-methyl-2-phenethylamino purine] |
|  |  |  |  |  |  |  | 9.8 | <5.0 | <5.0 | <5.0 | OC[C@H]1O[C@@H](n2cnc3c(C(F)(F)F)nc(NCCc4ccccc4)nc32)[C@H](O)[C@@H]1O [Compound 26, 2-phenethylamino-6-CF3-9-β-D-ribofuranosyl purine] |
| > 10 | 7940 | 2.51 | 79.4 | 20 |  |  |  |  |  |  | CC(C)(C)OC(=O)OCn1cnc2c(C(F)(F)F)nc(NCc3ccccc3)nc21 [Compound 29, 6-trifluoromethyl-2-benzylamino-9-BocOM-purine] |
